Consider 2 compounds from patent US9802912B2, “Cyclic ortho ester fuel additive” (AIRBUS OPERATIONS LIMITED, priority 2013, dated 2017).

Series [1] is described as follows: GC measurement of hydrolysis of triethyl orthoformate by water in Jet A-1. The format is physicochemical. Here is the method:
The analyses were performed using an Agilent 5890 gas chromatograph equipped with a flame ionisation detector. The GC column used was of fused silica, HP-5MS, 30 m by 0.25 mm, with a helium flow rate of 1.5 mL/min. The temperature for the detector and injector was fixed at 250° C. The oven temperature used for the analysis was 80° C. for 4 minutes, then it was increased at 20° C./min to 240° C. and held for 2 minutes.
Jet A-1, obtained by Air BP (Batch number BIS/HAL/12/035K), was dried by storing it over 3 Å molecular sieve for at least 24 hours. Standards with different water concentrations were prepared by adding measured volumes of distilled water by SGE μL syringes to 20 ml of anhydrous Jet A-1, taking extra care to inject the water in the middle of the solvent. Each standard was prepared just before use and ultrasonicated for 5 minutes to ensure an equal distribution of water.
A reactant solution was prepared to enable a simple, one-step addition of all the necessary chemicals. […]
For each water standard, the relative peak area (RPA) of ethanol was calculated by dividing the ethanol peak area by the internal standard peak area. […]

Series [2] is described as follows: 1H NMR kinetics of acid catalysed hydrolysis of TMOA in AcOH/AcONa buffers. The format is physicochemical. Here is the method:
Five buffers with constant acetic acid (AcOH) concentration and different H^+ concentrations were made by varying the amount of sodium acetate (AcONa) added (see Table 1). As the ionic concentration of the solution has an impact on the rate constant of hydrolysis, sodium chloride was added to keep the ionic strength constant in all 5 buffers.
The reaction samples were prepared directly in 5 mm NMR tube by adding 15 μL of TMOA in 500 μL of acetone-d6. To start the reaction 100 μL of acetic acid/sodium acetate aqueous buffer was added. All chemicals were purchased at the highest level of purity from Sigma Aldrich. Acetone-D6 and TMOA were dried before each experiment by distilling from 3 Å molecular sieve under nitrogen. Sodium chloride and sodium acetate were dried by heating them at T=100° C. for 4 hours under vacuum.
A 300 MHz NMR spectrometer was used to follow the concentration of TMOA with time by acquiring nine sequential ^1H NMR spectra every 10 min (actual delay time=10.38 min). Presaturation solvent suppression technique was used to obscure the H2O signal. An external reference was used by adding to the NMR tube a sealed capillary tube with 3-(trimethylsilyl)-1-propanesulfonic acid sodium salt dissolved in D2O (concentration=0.1966 M).
The TMOA ^1H NMR spectrum consists of two singlets resonating at 3.15 and 1.33 ppm, assigned to the —OCH3 and —CH3 residues, respectively (integrating 3:1—FIG. 7). The relative peak area (RPA—proportional to concentration) was measured by comparing the —CH3 resonance with that of the external reference.
The approach adopted for determining kH+ and kHA, was to exploit the constancy of Ka (=1.75×10^−5 mol/L) whilst varying the numerators (i.e., [A^−] 2→0.1 and pH 5.07→3.74) and maintaining [HA] constant (i.e., 0.192 mol/L). As the overall rate of reaction (equation III) is a summation of both processes described by kH+ and kHA, the rate constant kobs is therefore proportional to the concentration of both associated and dissociated acids (equation IV). rate=kobs[R—C(OR)3] (III) kobs=kH+[H^+]+kHA[HA] (IV)
Given that [HA] is constant, expression IV becomes equivalent to that of a straight line and kH+ and kHA may be determined by plotting kobs vs [H^+]. To obtain kobs however, the rate equation integrated over time (Eq. V) must be used. In[R—C(OR)3]t—In[R—C(OR)3]0=−kobst (V)
^1H NMR spectroscopy is the technique of choice when studying processes which occur on this timescale. Our choice of HA was acetic acid (AcOH), and five buffered solutions with different H^+ concentration were prepared by varying the amount of sodium acetate (AcONa=A^−). For the study, we switched focus from the aldehyde derivative TEOF (5, Scheme 1) used for the proof of concept study to the faster reacting keto-derivative trimethyl orthoacetate (TMOA) 8, Scheme 2 where R=—CH3) for reasons of atom economy (20% lighter).
[H^+] may be plotted (FIG. 5) and a straight line fitted (y=35.464×+1.6×10^−3; R^2=0.993) from which values for the gradient of the slope and y-intercept afford kH+=35.5 min^−1 and, kHA=7.8×10^−3 min^−1 respectively. It is clear that the pathway catalysed by dissociated acid H^+ (specific acid catalysis—scheme 2) is approximately 4500 times faster than the pathway catalysed by undissociated AcOH, within the pH range studied here (3.7→5.0).

As for `CCOC(OCC)OCC` [compound 5, triethyl orthoformate], the “reaction with water, completion” value in series [1] (Jet A-1, methane sulfonic acid, 30 minutes) came to 100%. Further, the “reaction with water, complete” value in series [1] (Jet A-1, no added acid catalyst, after 2 days) is 60-75%.
Consider `COC(C)(OC)OC` [TMOA, trimethyl orthoacetate], for which the Kobs in series [2] ([AcOH]/[AcONa] 0.486, [H+] 8.51 × 10^−6 mol/L) turned out to be 0.0016 min⁻¹; in series [2] ([AcOH]/[AcONa] 1, [H+] 1.75 × 10^−5 mol/L) it was 0.0024 min⁻¹; in series [2] ([AcOH]/[AcONa] 2.918, [H+] 5.11 × 10^−5 mol/L), 0.0036 min⁻¹; in series [2] ([AcOH]/[AcONa] 4, [H+] 7.00 × 10^−5 mol/L), 0.0042 min⁻¹; in series [2] ([AcOH]/[AcONa] 10.378, [H+] 1.82 × 10^−4 mol/L), 0.008 min⁻¹. For the same compound, in series [2] (from y-intercept of kobs v. [H+], [HA] 0.192 mol/L), the “kHA (general acid catalysis, undissociated AcOH)” value amounted to 0.0078 min⁻¹. Also, the “kH+ (specific acid catalysis)” value in series [2] (gradient of kobs v. [H+], pH 3.7-5.0) came to 35.5 min⁻¹. Also, the “rate of pathway catalysed by H+ relative to pathway catalysed by undissociated AcOH” value in series [2] (pH 3.7-5.0) was “approximately 4500 times”.
